Assays:
[1] = test system: Staphylococcus aureus-SMITH (GC 4543); experiment: acute lethal infection in mice; assay type: in vivo; settings: acute lethal infection, female CD-1 mice, intraperitoneal challenge, intravenous 30 min. after infection, 7 day survival
Procedure, shortened: (§1)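 Protocol: bacteria suspended in trypticase soy broth or hog gastric mucin injected ip into female CD-1 mice at a level killing untreated controls in 24-48 hr; compound given iv in saline or 5% dextrose 30 min post-challenge; five mice per dose; ED50 derived from pooled 7 day survival of three runs.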

[2] = test system: Enterococcus faecalis (GC 2246); experiment: acute lethal infection in mice; assay type: in vivo; settings: female CD-1 mice, intraperitoneal challenge, intravenous 30 min. after infection, 7 day survival
Procedure, shortened: as §1

[3] = test system: Escherichia coli; experiment: in vitro antibacterial evaluation, MIC by broth dilution; assay type: cell-based; settings: 18 hours at 35° C., strain ATCC 25922
Procedure, shortened: (§2)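 MIC = lowest antibiotic concentration preventing visible growth; inoculum 5×10^5 CFU/mL; drug range 64-0.06 μg/mL; Muller-Hinton II […]; NCCLS M7-A2 guidance.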

[4] = test system: Streptococcus sp.; experiment: as above; assay type: cell-based; settings: broth dilution, 18 hours at 35° C.
Procedure, shortened: as §2

[5] = test system: Enterococcus sp.; experiment: as above; assay type: cell-based; settings: broth dilution, 18 hours at 35° C.
Procedure, shortened: as §2

[6] = test system: Staphylococcus sp.; experiment: as above; assay type: cell-based
Procedure, shortened: as §2

[7] = test system: Escherichia coli; experiment: as above; assay type: cell-based; settings: 18 hours at 35° C.
Procedure, shortened: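 Broth dilution MIC per NCCLS M7-A2 in Mueller-Hinton II medium, inoculum 5×10^5 CFU/mL, antibiotic range 64-0.06 μg/mL. MIC taken as lowest concentration inhibiting growth.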

[8] = Enterococcus faecalis (ATCC 29212)
[9] = Enterococcus faecalis (GC 4552)
[10] = Enterococcus faecalis (GC 4553)
[11] = Enterococcus faecalis (GC 4554)
[12] = broth dilution, 18 hours at 35° C.
[13] = strain ATCC 29213; broth dilution, 18 hours at 35° C.
[14] = strain GC 1131; broth dilution, 18 hours at 35° C.
[15] = strain GC 4541; broth dilution, 18 hours at 35° C.
[16] = strain GC 4542; broth dilution, 18 hours at 35° C.
[17] = strain GC 4544; broth dilution, 18 hours at 35° C.
[18] = strain GC 4545; broth dilution, 18 hours at 35° C.

CCCC(CCC)C(=O)OCC1OC(OC2C(CO)OC(Oc3ccc(CC4NC(=O)C(C(C)c5ccccc5)NC(=O)CNC(=O)C(CO)NC(=O)C(C(O)C5CNC(=N)N5C5OC(CO)C(O)C(O)C5O)NC(=O)C(C(O)C5CNC(=N)N5)NC4=O)cc3)C(O)C2O)C(O)C(O)C1O (stereo not drawn) [Example 99c, Cyclo[glycyl-β-methylphenylalanyl-O-[4-O-[6-O-(2-propylpentanoyl)hexopyranosyl]-hexolpyranosyl]tyrosyl-3-(2-iminoimidazolidin-4-yl)seryl-3-(3-hexopyranosyl-2-iminoimidazolidin-4-yl)serylseryl]]
1 µg/mL: MIC Coagulase Negative Staphylococcus (GC 4547) [6, 12] | MIC Coagulase Negative Staphylococcus (GC 4548) [6, 12] | MIC Coagulase Negative Staphylococcus (GC 4549) [6, 12] | MIC Coagulase Negative Staphylococcus (ID-3941) [6, 12] | MIC Staphylococcus aureus (ATCC 29213) [6, 12] | MIC Staphylococcus aureus (GC 4542) [6, 12] | MIC Staphylococcus aureus (GC 4545) [6, 12] | MIC Staphylococcus aureus-SMITH (GC 4543) [6, 12] | MIC Staphylococcus haemolyticus (GC 4546) [6, 12] | MIC Staphylococcus haemolyticus (GC 4546) ([6]; broth dilution, 18 hours at 35° C.; strain GC 4546) | MIC Coagulase Negative Staphylococcus (GC 4547) ([6]; broth dilution, 18 hours at 35° C.; strain GC 4547) | MIC Coagulase Negative Staphylococcus (GC 4548) ([6]; broth dilution, 18 hours at 35° C.; strain GC 4548) | MIC Coagulase Negative Staphylococcus (GC 4549) ([6]; broth dilution, 18 hours at 35° C.; strain GC 4549) | MIC Coagulase Negative Staphylococcus (ID-3941) ([6]; broth dilution, 18 hours at 35° C.; strain ID-3941) | MIC Staphylococcus aureus-SMITH (GC 4543) ([6]; broth dilution, 18 hours at 35° C.; strain SMITH GC 4543) | MIC Staphylococcus aureus (ATCC 29213) [6, 13] | MIC Staphylococcus aureus (GC 4542) [6, 16] | MIC Staphylococcus aureus (GC 4545) [6, 18]
4 µg/mL: MIC Enterococcus avium (GC 4558) ([5]; Enterococcus avium (GC 4558)) | MIC Enterococcus faecalis (ATCC 29212) [5, 8] | MIC Enterococcus faecalis (GC 2242) ([5]; Enterococcus faecalis (GC 2242)) | MIC Enterococcus faecalis (GC 4552) [5, 9] | MIC Enterococcus faecalis (GC 4553) [5, 10] | MIC Enterococcus faecalis (GC 4554) [5, 11] | MIC Enterococcus faecium (GC 2243) ([5]; Enterococcus faecium (GC 2243)) | MIC Enterococcus faecium (GC 4556) ([5]; Enterococcus faecium (GC 4556)) | MIC Enterococcus faecalis (ATCC 29212) ([5]; strain ATCC 29212) | MIC Enterococcus faecalis (GC 2242) ([5]; strain GC 2242) | MIC Enterococcus faecium (GC 2243) ([5]; strain GC 2243) | MIC Enterococcus faecalis (GC 4552) ([5]; strain GC 4552) | MIC Enterococcus faecalis (GC 4553) ([5]; strain GC 4553) | MIC Enterococcus faecalis (GC 4554) ([5]; strain GC 4554) | MIC Enterococcus faecium (GC 4556) ([5]; strain GC 4556) | MIC Enterococcus avium (GC 4558) ([5]; strain GC 4558)
0.52 mg/kg: median effective dose (ED50), Staphylococcus aureus-SMITH (GC 4543) [1]
2 µg/mL: MIC Enterococcus faecium (GC 4557) ([5]; Enterococcus faecium (GC 4557)) | MIC Enterococcus faecium (GC 4557) ([5]; strain GC 4557) | MIC Coagulase Negative Staphylococcus (GC 4551) [6, 12] | MIC Staphylococcus aureus (GC 1131) [6, 12] | MIC Staphylococcus aureus (GC 4541) [6, 12] | MIC Staphylococcus aureus (GC 4544) [6, 12] | MIC Coagulase Negative Staphylococcus (GC 4551) ([6]; broth dilution, 18 hours at 35° C.; strain GC 4551) | MIC Staphylococcus aureus (GC 1131) [6, 14] | MIC Staphylococcus aureus (GC 4541) [6, 15] | MIC Staphylococcus aureus (GC 4544) [6, 17]
64 µg/mL: MIC Escherichia coli (ATCC 25922) [3]
4.3 mg/kg: median effective dose (ED50), Enterococcus faecalis (GC 2246) [2]
<0.5 µg/mL: MIC Streptococcus agalactiae (GC 4564) ([4]; Streptococcus agalactiae (GC 4564)) | MIC Streptococcus pneumoniae (GC 4565) ([4]; Streptococcus pneumoniae (GC 4565)) | MIC Streptococcus pyogenes (ID-3187) ([4]; Streptococcus pyogenes (ID-3187)) | MIC Streptococcus agalactiae (GC 4564) ([4]; strain GC 4564) | MIC Streptococcus pneumoniae (GC 4565) ([4]; strain GC 4565) | MIC Streptococcus pyogenes (ID-3187) ([4]; strain ID-3187)

CC(c1ccccc1)C1NC(=O)CNC(=O)C(CO)NC(=O)C(C(O)C2CNC(=N)N2C2OC(CO)C(O)C(O)C2O)NC(=O)C(C(O)C2CNC(=N)N2)NC(=O)C(Cc2ccc(OC3OC(CO)C(OC4OC(COC(=O)C(c5ccccc5)c5ccccc5)C(O)C(O)C4O)C(O)C3O)cc2)NC1=O (stereo not drawn) [Example 96c, Cyclo[glycyl-β-methylphenylalanyl-O-[4-O-[6-O-(diphenylacetyl)hexolpyranosyl]hexopyranosyl]tyrosyl-3-(2-iminoimidazolidin-4-yl)seryl-3-(3-hexopyranosyl-2-iminoimidazolidin-4-yl)serylseryl]]
2 µg/mL: MIC Enterococcus avium (GC 4558) ([5]; Enterococcus avium (GC 4558)) | MIC Enterococcus faecalis (ATCC 29212) [5, 8] | MIC Enterococcus faecalis (GC 4552) [5, 9] | MIC Enterococcus faecalis (GC 4553) [5, 10] | MIC Enterococcus faecalis (GC 4554) [5, 11] | MIC Enterococcus faecium (GC 2243) ([5]; Enterococcus faecium (GC 2243)) | MIC Enterococcus faecium (GC 4556) ([5]; Enterococcus faecium (GC 4556)) | MIC Enterococcus avium (GC 4558) [5] | MIC Enterococcus faecalis (ATCC 29212) [5] | MIC Enterococcus faecalis (GC 4552) [5] | MIC Enterococcus faecalis (GC 4553) [5] | MIC Enterococcus faecalis (GC 4554) [5] | MIC Enterococcus faecium (GC 2243) [5] | MIC Enterococcus faecium (GC 4556) [5]
0.5 µg/mL: MIC Coagulase Negative Staphylococcus (ID-3941) [6, 12] | MIC Staphylococcus aureus-SMITH (GC 4543) [6, 12] | MIC Staphylococcus haemolyticus (GC 4546) [6, 12] | MIC Staphylococcus aureus (GC 1131) [6, 14] | MIC Staphylococcus aureus (GC 4541) [6, 15] | MIC Staphylococcus aureus-SMITH (GC 4543) ([6]; strain GC 4543; broth dilution, 18 hours at 35° C.) | MIC Staphylococcus aureus (GC 4545) [6, 18] | MIC Staphylococcus haemolyticus (GC 4546) ([6]; strain GC 4546; broth dilution, 18 hours at 35° C.) | MIC Coagulase Negative Staphylococcus (ID-3941) ([6]; strain ID-3941; broth dilution, 18 hours at 35° C.)
5.2 mg/kg: median effective dose (ED50), Enterococcus faecalis (GC 2246) [2]
<0.06 µg/mL: MIC Streptococcus agalactiae (GC 4564) [4] | MIC Streptococcus pneumoniae (GC 4565) [4] | MIC Streptococcus pyogenes (ID-3187) [4] | MIC Streptococcus agalactiae (GC 4564) ([4]; strain GC 4564) | MIC Streptococcus pneumoniae (GC 4565) ([4]; strain GC 4565) | MIC Streptococcus pyogenes (ID-3187) ([4]; strain ID-3187)
1 µg/mL: MIC Enterococcus faecium (GC 4557) ([5]; Enterococcus faecium (GC 4557)) | MIC Enterococcus faecalis (GC 2242) [5] | MIC Enterococcus faecium (GC 4557) [5] | MIC Enterococcus faecalis (GC 2242) ([5]; strain GC 2242) | MIC Coagulase Negative Staphylococcus (GC 4547) [6, 12] | MIC Coagulase Negative Staphylococcus (GC 4549) [6, 12] | MIC Coagulase Negative Staphylococcus (GC 4551) [6, 12] | MIC Staphylococcus aureus (ATCC 29213) [6, 13] | MIC Staphylococcus aureus (GC 4542) [6, 16] | MIC Staphylococcus aureus (GC 4544) [6, 17] | MIC Coagulase Negative Staphylococcus (GC 4547) ([6]; strain GC 4547; broth dilution, 18 hours at 35° C.) | MIC Coagulase Negative Staphylococcus (GC 4549) ([6]; strain GC 4549; broth dilution, 18 hours at 35° C.) | MIC Coagulase Negative Staphylococcus (GC 4551) ([6]; strain GC 4551; broth dilution, 18 hours at 35° C.)
0.29 mg/kg: median effective dose (ED50), Staphylococcus aureus-SMITH (GC 4543) [1]
64 µg/mL: MIC Escherichia coli (ATCC 25922) [7]
0.25 µg/mL: MIC Coagulase Negative Staphylococcus (GC 4548) [6, 12] | MIC Coagulase Negative Staphylococcus (GC 4548) ([6]; strain GC 4548; broth dilution, 18 hours at 35° C.)

Source: patent publication US6914045B2, “Glycopeptide antibiotics” (Wyeth Holdings Corporation, priority 2001, dated 2005)
